Common to all, as to type: functional
The test system of one test is Klebsiella pneumoniae. Briefly: Antibacterial activity against Klebsiella pneumoniae ATCC 700603 assessed as bacterial growth inhibition incubated for 18 hrs by broth microdilution method. On the technique in general: Broth dilution looks for growth in wells or tubes with falling amounts of substance.
Test [1] concerns Staphylococcus aureus. Description: Antibacterial activity against rifampicin-resistant Staphylococcus aureus ATCC 25923 assessed as reduction in bacterial growth incubated for 18 hrs by broth microdilution method.
Test [2] relates to Staphylococcus aureus. Briefly: Antibacterial activity against Staphylococcus aureus ATCC 25923 assessed as bacterial growth inhibition incubated for 18 hrs by broth microdilution method.
The next test deals with Pseudomonas aeruginosa. Description: Antibacterial activity against Pseudomonas aeruginosa ATCC 27853 assessed as bacterial growth inhibition incubated for 18 hrs by broth microdilution method.
The next test deals with Bacillus subtilis. Description: Antibacterial activity against Bacillus subtilis ATCC 23857 assessed as bacterial growth inhibition incubated for 18 hrs by broth microdilution method.
Test [3] has as its system Escherichia coli. Description: Antibacterial activity against rifampicin-resistant Escherichia coli ATCC 25922 assessed as reduction in bacterial growth incubated for 18 hrs by broth microdilution method.
The test system of test [4] is Escherichia coli. Briefly: Induction of drug resistance against Escherichia coli ATCC 25922measured after 5 to 7 passages by sequential passaging method.
In test [5] the test system is Escherichia coli. Description: Antibacterial activity against Escherichia coli ATCC 25922 assessed as bacterial growth inhibition incubated for 18 hrs by broth microdilution method.
The test system of test [6] is Escherichia coli. Briefly: Induction of drug resistance against Escherichia coli ATCC 25922 assessed as fold increase in MIC measured upto 15 passages by sequential passaging method.
For a further test, the system named is Enterococcus faecalis. Briefly: Antibacterial activity against Enterococcus faecalis ATCC 29212 assessed as bacterial growth inhibition incubated for 18 hrs by broth microdilution method.
In test [7] the test system is Staphylococcus aureus. Description: Induction of drug resistance against Staphylococcus aureus ATCC 25923 assessed as fold increase in MIC measured upto 15 passages by sequential passaging method.

In brackets after ≈: the same amount, converted by molar mass. Activity calls are given as the source filed them. The rule behind the calls is not given here.

The source of these data is ChEMBL document CHEMBL5331122, “Structure-Activity Relationship Study of Antimicrobial Peptide PE2 Delivered Novel Linear Derivatives with Potential of Eradicating Biofilms and Low Incidence of Drug Resistance” (J Med Chem, 2023).

With `CO[C@H]1/C=C/O[C@@]2(C)Oc3c(C)c(O)c4c(O)c(c(/C=N/N5CCN(C)CC5)c(O)c4c3C2=O)NC(=O)/C(C)=C\C=C\[C@H](C)[C@H](O)[C@@H](C)[C@@H](O)[C@@H](C)[C@H](OC(C)=O)[C@@H]1C` [RIFAMPIN], the MIC (as a rule, the lowest concentration found to suppress growth) was 32 µg/mL (≈ 38.9 µM) in the test on Klebsiella pneumoniae; 2050 µg/mL (≈ 2490 µM) with Staphylococcus aureus [1]; less than 1 µg/mL in the test with Staphylococcus aureus [2]; 32 µg/mL (≈ 38.9 µM) with Pseudomonas aeruginosa; less than 1 µg/mL in the test on Bacillus subtilis; 4100 µg/mL (≈ 4980 µM) in the test with Escherichia coli [3]. Further, the MIC with Escherichia coli [5] is 4 µg/mL (≈ 4.86 µM); with Enterococcus faecalis it was less than 1 µg/mL. Further, the result in the test on Escherichia coli [4] was Active. In addition, the values for the fold change (FC) with Escherichia coli [6] and in the test on Staphylococcus aureus [7] were 64 and 512, respectively.
